Data reported in patent US20210395313A1, “PEPTIDE PAC1 ANTAGONISTS” (AMGEN INC., priority 2017, published 2021).
Where a SMILES comes first, the peptide text is derived from it. Bridges are numbered along the chain shown (N, C = ends). Where no end group is shown, it is not given here.

Molecular target: T1, rat PAC1 receptor (Rattus norvegicus, UniProt P32215)
T1 construct: SHSY-5Y (human neuroblastoma cell line) and RG-2 (rat glioma cell line) cells endogenously express human and rat PAC1 receptors, respectively; endogenous in cells; host or cells: RG-2 rat glioma cells
T1 sequence (P32215 20-523): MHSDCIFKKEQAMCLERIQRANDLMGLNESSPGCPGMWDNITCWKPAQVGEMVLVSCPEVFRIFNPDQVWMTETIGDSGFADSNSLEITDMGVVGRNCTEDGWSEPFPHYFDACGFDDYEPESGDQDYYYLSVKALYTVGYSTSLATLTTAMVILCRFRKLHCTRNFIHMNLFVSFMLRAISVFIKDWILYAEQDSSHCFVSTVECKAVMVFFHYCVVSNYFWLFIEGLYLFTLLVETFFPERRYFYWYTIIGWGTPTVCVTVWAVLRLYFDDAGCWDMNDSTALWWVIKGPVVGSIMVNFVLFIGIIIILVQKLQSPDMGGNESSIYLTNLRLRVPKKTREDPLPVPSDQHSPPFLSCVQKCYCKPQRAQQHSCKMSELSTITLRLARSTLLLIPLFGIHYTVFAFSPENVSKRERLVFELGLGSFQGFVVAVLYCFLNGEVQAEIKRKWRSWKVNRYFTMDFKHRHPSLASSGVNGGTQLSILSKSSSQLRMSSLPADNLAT
Test: LANCE Ultra cAMP accumulation antagonist assay in RG-2 cells;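 also: RG-2 rat glioma cells endogenously expressing PAC1, test peptide preincubated 30 min, then PAC1 agonist added at its EC80 for 15 min, cAMP accumulation read by LANCE Ultra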
Assay type: cell-based

Compound	IC50 [nM]
CC[C@H](C)[C@H](NC(=O)[C@H](C)NC(=O)[C@H](CCCCN)NC(=O)[C@H](CCCNC(=N)N)NC(=O)[C@H](Cc1ccccc1)NC(=O)[C@H](CCC(N)=O)NC(=O)[C@H](CO)NC(=O)[C@@H](NC(=O)[C@H](C)N)[C@@H](C)O)C(=O)N[C@@H](CC(=O)O)C(=O)N[C@@H](CC(=O)O)C(=O)N[C@H]1CSSC[C@@H](C(=O)N[C@@H](CCSC)C(=O)N[C@@H](CCCCN)C(=O)N[C@@H](CCC(N)=O)C(=O)N[C@@H](CCCCN)C(=O)N[C@@H](CCCCN)C(=O)N[C@@H](CCCCN)C(=O)N[C@@H](CCC(=O)O)C(=O)N[C@@H](Cc2c[nH]c3ccccc23)C(=O)N[C@@H](CCCCN)C(=O)O)NC(=O)[C@H](C)NC(=O)[C@H](CCCCN)NC(=O)[C@H](Cc2ccccc2)NC(=O)[C@H](C(C)C)NC(=O)[C@H](CO)NC(=O)[C@H](CO)NC(=O)[C@H](Cc2c[nH]cn2)NC(=O)[C@H](Cc2ccc(O)cc2)NC(=O)[C@H](C)NC(=O)[C@H](CCC(N)=O)NC(=O)[C@H](CCCNC(=N)N)NC(=O)[C@H](C)NC1=O [compound 440] (H-ATSQFRKAIDDCARQAYHSSVFKACMKQKKKEWK-OH; disulfide 12-25)	1 to 100
MCDATCQFRKAIDDCQKQAHHSNVPGSVFKACMKQKKKEFKAGHHHHH (disulfide 2-6, 15-32) [compound 199]	0.01 to 1
CDATCQFRKAIDDCQKQAHHSNVPGSVFKACMKQKKKEFKAGE (disulfide 1-5, 14-31) [compound 173]	0.01 to 1
CC[C@H](C)[C@H](NC(=O)[C@H](C)NC(=O)[C@H](CCCCN)NC(=O)[C@H](CCCNC(=N)N)NC(=O)[C@H](Cc1ccccc1)NC(=O)[C@H](CCC(N)=O)NC(=O)[C@@H]1CSSC[C@H](N)C(=O)N[C@@H](CC(=O)O)C(=O)N[C@@H](C)C(=O)N[C@@H]([C@@H](C)O)C(=O)N1)C(=O)N[C@@H](CC(=O)O)C(=O)N[C@@H](CC(=O)O)C(=O)N[C@H]1CSSC[C@@H](C(=O)N[C@@H](CCSC)C(=O)N[C@@H](CCCCN)C(=O)N[C@@H](CCC(N)=O)C(=O)N[C@@H](CCCCN)C(=O)N[C@@H](CCCCN)C(=O)N[C@@H](CCCCN)C(=O)N[C@@H](CCC(=O)O)C(=O)N[C@@H](Cc2c[nH]c3ccccc23)C(=O)N[C@@H](CCCCN)C(=O)N[C@@H](C)C(=O)NCC(=O)N[C@@H](Cc2c[nH]cn2)C(=O)O)NC(=O)[C@H](C)NC(=O)[C@H](CCCCN)NC(=O)[C@H](Cc2ccccc2)NC(=O)[C@H](CCC(N)=O)NC(=O)[C@H](CCCNC(=N)N)NC(=O)[C@H](C)NC1=O [compound 447] (H-CDATCQFRKAIDDCARQFKACMKQKKKEWKAGH-OH; disulfide 1-5, 14-21)	0.01 to 1
CC[C@H](C)[C@@H]1NC(=O)[C@H](C)NC(=O)[C@H](CCCCN)NC(=O)[C@H](CCCNC(=N)N)NC(=O)[C@H](Cc2ccccc2)NC(=O)[C@H](CCC(N)=O)NC(=O)[C@H](CO)NC(=O)[C@H]([C@@H](C)O)NC(=O)[C@H](C)NC(=O)[C@H](CC(=O)O)NC(=O)[C@@H](N)CSSC[C@@H](C(=O)N[C@@H](Cc2c[nH]cn2)C(=O)O)NC(=O)[C@H](C)NC(=O)[C@H](CCCCN)NC(=O)[C@H](Cc2c[nH]c3ccccc23)NC(=O)[C@H](CCC(=O)O)NC(=O)[C@H](CCCCN)NC(=O)[C@H](CCCCN)NC(=O)[C@H](CCCCN)NC(=O)[C@H](CCC(N)=O)NC(=O)[C@H](CCCCN)NC(=O)[C@H](CCSC)NC(=O)[C@H](CO)NC(=O)[C@H](C)NC(=O)[C@H](CCCCN)NC(=O)[C@H](Cc2ccccc2)NC(=O)[C@H](C)NC(=O)[C@H](CO)NC(=O)[C@H](CC(=O)O)NC(=O)[C@H](CC(=O)O)NC1=O [compound 442] (H-CDATSQFRKAIDDSAFKASMKQKKKEWKACH-OH; disulfide 1-30)	> 100
